The source of these data is patent US20100160342A1, “Compositions of Topical Ocular Solutions to Deliver Effective Concentrations of Active Agent to the Posterior Segment of the Eye” (ALCON RESEARCH, LTD., priority 2008, published 2010).

On data set [1], the source says:
Another preferred criterion for improving the bioavailability of the active agent is establishing a pH range for the composition which provides the highest solubility. It will be apparent to the skilled artisan that the pH of the composition will depend upon the concentration and the salt form of the active agent in the composition.

A short description of data set [2]: Ocular comfort / stinging upon topical administration to the eye. From the text:
It is well known that acidic solutions alone cause ocular stinging.

For data set [3] the following is noted: in vivo.

On to “tandospirone citrate [tandospirone citrate salt]”, for which, in data set [1], the “solubility compared with the free base” value was “dramatically less than that of the free base” and the “solubility versus theoretical solubility predicted by the Handerson-Hasselbach relationship” value is recorded as “decreased substantially”. The “ocular stinging / comfort” value in data set [2] (in vivo) is recorded as “stings”.
With `O=C1[C@@H]2[C@H]3CC[C@H](C3)[C@@H]2C(=O)N1CCCCN1CCN(c2ncccn2)CC1` [Tandospirone, tandospirone], the “solubility versus theoretical solubility predicted by the Handerson-Hasselbach relationship” value in data set [1] was “does not exhibit this solubility dip”. For the same compound, in data set [3], the “aqueous humor (AqH) drug level, 0.5% HPMC versus 0% HPMC” value is given as about 3 fold and the “retina drug level, 0.5% HPMC versus 0% HPMC” value is 0.5% HPMC ˜0% HPMC. Besides, in data set [2] (ophthalmic solution administered topically to the eye), the “ocular stinging / comfort” value was “more comfortable”.
